Experimental data: patent US20060111331A1, “Gave10 agonists for treating inflammation” (Aventis Pharmaceuticals Inc., priority 2004, published 2006)

Assays:
Assay type in all cases: cell-based
GAVE10 [1] = biological target: T1, GAVE10 (Homo sapiens, UniProt Q8TDU6); experiment: FLIPR assay, PSC cells transfected with GAVE10 (calcium signaling); conditions: PSC cells alone vs PSC cells transfected with GAVE10; FIG. 1
T1 construct: expressed in transfected cells; host or cells: PSC cells
T1 sequence (Q8TDU6 1-330): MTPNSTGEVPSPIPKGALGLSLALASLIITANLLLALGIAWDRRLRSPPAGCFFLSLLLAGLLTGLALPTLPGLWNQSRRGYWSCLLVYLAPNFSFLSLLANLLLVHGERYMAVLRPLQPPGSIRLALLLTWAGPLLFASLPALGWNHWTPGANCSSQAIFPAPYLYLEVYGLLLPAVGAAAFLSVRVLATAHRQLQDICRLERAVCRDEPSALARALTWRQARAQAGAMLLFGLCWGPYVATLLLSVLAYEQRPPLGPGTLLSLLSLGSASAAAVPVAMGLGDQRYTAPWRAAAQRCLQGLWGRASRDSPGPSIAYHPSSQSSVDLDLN
Description: Compounds A, B, and C and lithocholic acid (LCA) were incubated, respectively, with PSC cells alone and PSC cells transfected with GAVE10, and the cells were then assayed in a FLIPR® assay.
To screen for agonists of human GAVE10, hGAVE10 was coupled artificially to a Gq mechanism. Activation of the Gq mechanism stimulates the release of Ca^2+ from sarcoplasmic reticulum vesicles within the cell. The Ca^2+ was released into the cytoplasm where it can be detected using Ca^2+ chelating dyes. A Fluorometric Imaging Plate Reader (i.e., a FLIPR® apparatus, Molecular Devices) was used to monitor any resulting changes in fluorescence. The activity of an agonist was reflected by any increase in fluorescence.
CHO-KI cells expressing hGAVE10 were pre-engineered to express an indiscriminate form of Gq protein (G016). To prepare such cells, Gα16-coupled CHO cells were obtained commercially (Molecular Devices LIVEWARE™ cells, Catalog No. RD-HGAI6) and the protocol in Example 2 followed to facilitate expression of hGAVE10 in those cells. The cells were maintained in log phase of growth at 37° C. and 5% CO2 in F12 Ham's media (Gibco/BRL, Catalog No. 11765-054) containing 10% fetal bovine serum, 100 IU/ml penicillin (Gibco/BRL, Catalog No. 15140-148), 100 μg/ml streptomycin (Catalog No. 15140-148, Gibco/BRL), 400 μg/ml genetecin (G418) (Gibco/BRL, Catalog No. 10131-035) and 200 μg/ml zeocin (Invitrogen, Catalog No. R250-05). […]
The CCD camera (Princeton Instruments) of the FLIPR® II (Molecular Devices) instrument was set at an f-stop of 2.0 and an exposure of 0.4 seconds. […] Changes in fluorescence were measured for 10 seconds prior to compound addition. After the addition of the compound, fluorescence was measured every second for the first minute followed by exposures taken every six seconds for a total experimental analysis time of three minutes. […] The maximum fluorescence changes for the first 80 scans were recorded as a measure of agonist activity and compared to the maximum fluorescence change induced by 10 μM ATP (Sigma A9062).

GAVE10 [2] = biological target: T1, GAVE10; experiment: cAMP assay, PSC cells transfected with GAVE10; conditions: PSC cells alone vs PSC cells transfected with GAVE10; FIG. 2
Description: Compounds A, B, and C and LCA were incubated, respectively, with PSC cells alone and PSC cells transfected with GAVE 10, and the cells were then assayed in a cAMP assay.

[3] = tested on: TNFα release in mouse macrophages; experiment: TNFα release assay in mouse macrophages; conditions: FIG. 3
[4] = tested on: IL-6 production in mouse macrophages; experiment: IL-6 production in mouse macrophages; conditions: male and female, effect more pronounced in male, FIG. 4

Row | SMILES | activation of calcium-signaling pathways via GAVE10 (FLIPR) (GAVE10 [1]) | increase of intracellular cAMP via GAVE10 activation (GAVE10 [2]) | inhibition of TNFα release [3] | inhibition of IL-6 production [4]
1 | CC(CCC(=O)NCC[N+](C)(C)C)C1CCC2C3CCC4CC(O)CCC4(C)C3CC(O)C12C (stereo not drawn) [Compound A] | bind to GAVE10 to activate calcium-signaling pathways | activate GAVE10 to increase intracellular cAMP | inhibited TNFα release | –
2 | CC(CCC(=O)N1CCN(C)CC1)C1CCC2C3CCC4CC(O)CCC4(C)C3CC(O)C12C (stereo not drawn) [Compound B] | bind to GAVE10 to activate calcium-signaling pathways | activate GAVE10 to increase intracellular cAMP | inhibited TNFα release | –
3 | CC(CCC(=O)NCCN1CCOCC1)C1CCC2C3CCC4CC(O)CCC4(C)C3CC(O)C12C (stereo not drawn) [Compound C] | bind to GAVE10 to activate calcium-signaling pathways | activate GAVE10 to increase intracellular cAMP | – | –
4 | C[C@H](CCC(=O)O)[C@H]1CC[C@H]2[C@@H]3CC[C@@H]4C[C@H](O)CC[C@]4(C)[C@H]3C[C@H](O)[C@]12C [DCA] | – | – | – | inhibit IL-6 production
